Starred links: 1 amine or outer side, 2 acyl side, 3 side chain; linkers in the order of their positions; H or OH if unused. Positions of bridges follow the written chain, without caps; N, C: chain ends. Residues, ends and D or L forms follow the SMILES beside them. *: point of attachment. C20 diacid = O=C(O)CCCCCCCCCCCCCCCCCCC(=O)*; C18 diacid = O=C(O)CCCCCCCCCCCCCCCCC(=O)*; γGlu = O=C(O)[C@H](CCC(=O)[*:2])N[*:1]
Assay: Assay (III) ThT fibrillation assay for physical stability
Format: physicochemical
Settings: for ThT pH 4.0 lag time: pH 4.0, ThT fibrillation assay
Outline: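 Freshly prepared, pH-adjusted formulations with 1 μM ThT incubated at 37 °C under 960 rpm orbital shaking (1 mm), fluorescence (ex 444, em 485 nm) read every 20 min. […] Peptide content before and after measured by reverse-phase HPLC against pramlintide standard.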

SMILES	ThT pH 4.0 lag time [h]	ThT pH 4.0 lag time (physical stability in fibrillogenesis assay) (pH 4.0) [h]
CC[C@H](C)[C@H](NC(=O)[C@@H]1CCCN1C(=O)CNC(=O)[C@H](Cc1ccccc1)NC(=O)[C@H](CC(N)=O)NC(=O)[C@H](CC(N)=O)NC(=O)[C@H](CO)NC(=O)[C@H](CO)NC(=O)[C@H](Cc1c[nH]cn1)NC(=O)[C@H](CCCNC(=N)N)NC(=O)[C@H](CC(C)C)NC(=O)[C@H](Cc1ccccc1)NC(=O)[C@H](CCC(=O)O)NC(=O)[C@H](C)NC(=O)[C@H](CC(C)C)NC(=O)[C@H](CCCNC(=N)N)NC(=O)[C@H](CCC(N)=O)NC(=O)[C@@H](NC(=O)[C@H](C)NC(=O)[C@@H]1CSSC[C@H](NC(=O)[C@H](CCCCN)NC(=O)[C@H](CCC(=O)O)NC(=O)CC[C@H](NC(=O)CCCCCCCCCCCCCCCCC(=O)O)C(=O)O)C(=O)N[C@@H](CC(N)=O)C(=O)N[C@@H]([C@@H](C)O)C(=O)N[C@@H](C)C(=O)N[C@@H]([C@@H](C)O)C(=O)N1)[C@@H](C)O)C(=O)N[C@@H](CC(C)C)C(=O)N1CCC[C@H]1C(=O)N1CCC[C@H]1C(=O)N[C@H](C(=O)N[C@@H](CC(N)=O)C(=O)N[C@H](C(=O)NCC(=O)N[C@@H](CO)C(=O)N[C@@H](Cc1c[nH]cn1)C(=O)N[C@H](C(=O)N[C@@H](Cc1ccc(O)cc1)C(N)=O)[C@@H](C)O)C(C)C)[C@@H](C)O [Example 62, N-alpha-[(S)-4-Carboxy-4-(17-carboxyheptadecanoylamino)butyryl]-Glu-[Glu14,Arg17,His35]-pramlintide] ({C18 diacid-γGlu}-EKCNTATCATQRLAEFLRHSSNNFGPILPPTNVGSHTY-NH2; disulfide 3-8 (inferred); C-terminus assumed)	30	–
CC[C@H](C)[C@H](NC(=O)[C@@H]1CCCN1C(=O)CNC(=O)[C@H](Cc1ccccc1)NC(=O)[C@H](CC(N)=O)NC(=O)[C@H](CC(N)=O)NC(=O)[C@H](CO)NC(=O)[C@H](CO)NC(=O)[C@H](Cc1c[nH]cn1)NC(=O)[C@H](Cc1c[nH]cn1)NC(=O)[C@H](CC(C)C)NC(=O)[C@H](Cc1ccccc1)NC(=O)[C@H](CCC(=O)O)NC(=O)[C@H](C)NC(=O)[C@H](CC(C)C)NC(=O)[C@H](CCCNC(=N)N)NC(=O)[C@H](CCC(N)=O)NC(=O)[C@@H](NC(=O)[C@H](C)NC(=O)[C@@H]1CSSC[C@H](NC(=O)[C@H](Cc2c[nH]cn2)NC(=O)[C@H](Cc2c[nH]cn2)NC(=O)[C@H](Cc2c[nH]cn2)NC(=O)CC[C@H](NC(=O)CCCCCCCCCCCCCCCCCCC(=O)O)C(=O)O)C(=O)N[C@@H](CC(N)=O)C(=O)N[C@@H]([C@@H](C)O)C(=O)N[C@@H](C)C(=O)N[C@@H]([C@@H](C)O)C(=O)N1)[C@@H](C)O)C(=O)N[C@@H](CC(C)C)C(=O)N1CCC[C@H]1C(=O)N1CCC[C@H]1C(=O)N[C@H](C(=O)N[C@@H](CC(N)=O)C(=O)N[C@H](C(=O)NCC(=O)N[C@@H](CO)C(=O)N[C@@H](Cc1c[nH]cn1)C(=O)N[C@H](C(=O)N[C@@H](Cc1ccc(O)cc1)C(N)=O)[C@@H](C)O)C(C)C)[C@@H](C)O [Example 31, N-alpha-[(S)-4-Carboxy-4-(19-carboxynonadecanoylamino)butyryl]-His-His-[His1,Glu14,His17,His35]-pramlintide] ({C20 diacid-γGlu}-HHHCNTATCATQRLAEFLHHSSNNFGPILPPTNVGSHTY-NH2; disulfide 4-9)	>45	–
CC[C@H](C)[C@H](NC(=O)[C@@H]1CCCN1C(=O)CNC(=O)[C@H](Cc1ccccc1)NC(=O)[C@H](CC(N)=O)NC(=O)[C@H](CC(N)=O)NC(=O)[C@H](CO)NC(=O)[C@H](CO)NC(=O)[C@H](Cc1c[nH]cn1)NC(=O)[C@H](Cc1c[nH]cn1)NC(=O)[C@H](CC(C)C)NC(=O)[C@H](Cc1ccccc1)NC(=O)[C@H](CCC(=O)O)NC(=O)[C@H](C)NC(=O)[C@H](CC(C)C)NC(=O)[C@H](CCCNC(=N)N)NC(=O)[C@H](CCC(N)=O)NC(=O)[C@@H](NC(=O)[C@H](C)NC(=O)[C@@H]1CSSC[C@H](NC(=O)[C@H](CCCCN)NC(=O)[C@H](CO)NC(=O)CC[C@H](NC(=O)CCCCCCCCCCCCCCCCCCC(=O)O)C(=O)O)C(=O)N[C@@H](CC(N)=O)C(=O)N[C@@H]([C@@H](C)O)C(=O)N[C@@H](C)C(=O)N[C@@H]([C@@H](C)O)C(=O)N1)[C@@H](C)O)C(=O)N[C@@H](CC(C)C)C(=O)N1CCC[C@H]1C(=O)N1CCC[C@H]1C(=O)N[C@H](C(=O)N[C@@H](CC(N)=O)C(=O)N[C@H](C(=O)NCC(=O)N[C@@H](CO)C(=O)N[C@@H](Cc1c[nH]cn1)C(=O)N[C@H](C(=O)N[C@@H](Cc1ccc(O)cc1)C(N)=O)[C@@H](C)O)C(C)C)[C@@H](C)O [Example 85, N-alpha-[(S)-4-Carboxy-4-(19-carboxynonadecanoylamino)butyryl]-Ser-[Glu14,His17,His35]-pramlintide] ({C20 diacid-γGlu}-SKCNTATCATQRLAEFLHHSSNNFGPILPPTNVGSHTY-NH2; disulfide 3-8)	>45	–
CC[C@H](C)[C@H](NC(=O)[C@@H]1CCCN1C(=O)CNC(=O)[C@H](Cc1ccccc1)NC(=O)[C@H](CC(N)=O)NC(=O)[C@H](CC(N)=O)NC(=O)[C@H](CO)NC(=O)[C@H](CO)NC(=O)[C@H](Cc1c[nH]cn1)NC(=O)[C@H](CCCNC(=N)N)NC(=O)[C@H](CC(C)C)NC(=O)[C@H](Cc1ccccc1)NC(=O)[C@H](CCC(=O)O)NC(=O)[C@H](C)NC(=O)[C@H](CC(C)C)NC(=O)[C@H](CCCNC(=N)N)NC(=O)[C@H](CCC(N)=O)NC(=O)[C@@H](NC(=O)[C@H](C)NC(=O)[C@@H]1CSSC[C@H](NC(=O)[C@H](CCCCN)NC(=O)[C@H](Cc2c[nH]cn2)NC(=O)CC[C@H](NC(=O)CCCCCCCCCCCCCCCCCCC(=O)O)C(=O)O)C(=O)N[C@@H](CC(N)=O)C(=O)N[C@@H]([C@@H](C)O)C(=O)N[C@@H](C)C(=O)N[C@@H]([C@@H](C)O)C(=O)N1)[C@@H](C)O)C(=O)N[C@@H](CC(C)C)C(=O)N1CCC[C@H]1C(=O)N1CCC[C@H]1C(=O)N[C@H](C(=O)N[C@@H](CC(N)=O)C(=O)N[C@H](C(=O)NCC(=O)N[C@@H](CO)C(=O)N[C@@H](Cc1c[nH]cn1)C(=O)N[C@H](C(=O)N[C@@H](Cc1ccc(O)cc1)C(N)=O)[C@@H](C)O)C(C)C)[C@@H](C)O [Example 68, N-alpha-[(S)-4-Carboxy-4-(19-carboxynonadecanoylamino)butyryl]-His-[Glu14,Arg17,His35]-pramlintide] ({C20 diacid-γGlu}-HKCNTATCATQRLAEFLRHSSNNFGPILPPTNVGSHTY-NH2; disulfide 3-8 (inferred); C-terminus assumed)	>45	–
CC[C@H](C)[C@H](NC(=O)[C@@H]1CCCN1C(=O)CNC(=O)[C@H](Cc1ccccc1)NC(=O)[C@H](CC(N)=O)NC(=O)[C@H](CCC(N)=O)NC(=O)[C@H](CO)NC(=O)[C@H](CO)NC(=O)[C@H](Cc1c[nH]cn1)NC(=O)[C@H](CCCNC(=N)N)NC(=O)[C@H](CC(C)C)NC(=O)[C@H](Cc1ccccc1)NC(=O)[C@H](CCC(=O)O)NC(=O)[C@H](C)NC(=O)[C@H](CC(C)C)NC(=O)[C@H](CCCNC(=N)N)NC(=O)[C@H](CCC(N)=O)NC(=O)[C@@H](NC(=O)[C@H](C)NC(=O)[C@@H]1CSSC[C@H](NC(=O)[C@H](CCC(=O)O)NC(=O)[C@H](CCCNC(=N)N)NC(=O)[C@H](CCC(=O)O)NC(=O)CC[C@H](NC(=O)CCCCCCCCCCCCCCCCCCC(=O)O)C(=O)O)C(=O)N[C@@H](CC(N)=O)C(=O)N[C@@H]([C@@H](C)O)C(=O)N[C@@H](C)C(=O)N[C@@H]([C@@H](C)O)C(=O)N1)[C@@H](C)O)C(=O)N[C@@H](CC(C)C)C(=O)N1CCC[C@H]1C(=O)N1CCC[C@H]1C(=O)N[C@H](C(=O)N[C@@H](CC(N)=O)C(=O)N[C@H](C(=O)NCC(=O)N[C@@H](CO)C(=O)N[C@@H](CCC(N)=O)C(=O)N[C@H](C(=O)N1CCC[C@H]1C(N)=O)[C@@H](C)O)C(C)C)[C@@H](C)O [Example 162, N-alpha-[(S)-4-Carboxy-4-(19-carboxynonadecanoylamino)butyryl]-Glu-Arg-[Glu1,Glu14,Arg17,Gln21,Gln35,Pro37]-pramlintide] ({C20 diacid-γGlu}-ERECNTATCATQRLAEFLRHSSQNFGPILPPTNVGSQTP-NH2; disulfide 4-9 (inferred); C-terminus assumed)	>45	>45
CC[C@H](C)[C@H](NC(=O)[C@@H]1CCCN1C(=O)CNC(=O)[C@H](Cc1ccccc1)NC(=O)[C@H](CC(N)=O)NC(=O)[C@H](CC(N)=O)NC(=O)[C@H](CO)NC(=O)[C@H](CO)NC(=O)[C@H](Cc1c[nH]cn1)NC(=O)[C@H](Cc1c[nH]cn1)NC(=O)[C@H](CC(C)C)NC(=O)[C@H](Cc1ccccc1)NC(=O)[C@H](CCC(=O)O)NC(=O)[C@H](C)NC(=O)[C@H](CC(C)C)NC(=O)[C@H](CCCNC(=N)N)NC(=O)[C@H](CCC(N)=O)NC(=O)[C@@H](NC(=O)[C@H](C)NC(=O)[C@@H]1CSSC[C@H](NC(=O)[C@H](CCCCN)NC(=O)CC[C@H](NC(=O)CCCCCCCCCCCCCCCCCCC(=O)O)C(=O)O)C(=O)N[C@@H](CC(N)=O)C(=O)N[C@@H]([C@@H](C)O)C(=O)N[C@@H](C)C(=O)N[C@@H]([C@@H](C)O)C(=O)N1)[C@@H](C)O)C(=O)N[C@@H](CC(C)C)C(=O)N1CCC[C@H]1C(=O)N1CCC[C@H]1C(=O)N[C@H](C(=O)N[C@@H](CC(N)=O)C(=O)N[C@H](C(=O)NCC(=O)N[C@@H](Cc1c[nH]cn1)C(=O)N[C@@H](CC(N)=O)C(=O)N[C@H](C(=O)N[C@@H](Cc1ccc(O)cc1)C(N)=O)[C@@H](C)O)C(C)C)[C@@H](C)O [Example 115, N-alpha-[(S)-4-Carboxy-4-(19-carboxynonadecanoylamino)butyryl]-[Glu14,His17,His34]-pramlintide] ({C20 diacid-γGlu}-KCNTATCATQRLAEFLHHSSNNFGPILPPTNVGHNTY-NH2; disulfide 2-7 (inferred))	>45	–

Reference: patent US8741836B2, “Polypeptides” (Novo Nordisk A/S, priority 2011, dated 2014)
